Tests used:
[1] = in vivo; cited from earlier work
antiserum F-12 [2] = experiment: Specificity / cross reactivity of the radioimmunoassay, antiserum F-12; format: binding, rabbit
Text: (§1) Since TCDD itself has no chemically reactive functional groups, a derivative was synthesized that retained most of the structural features of TCDD but with the addition of a reactive site. This derivative was coupled to an immunogenic protein carrier, such as bovine serum albumin, rabbit serum albumin, etc., so that animals would respond to it by producing an antiserum containing antibodies. A second compound was synthesized, still structurally similar to TCDD so that it would bind to the antibodies, but capable of being labeled with ^125 I for detectability at the picogram level. An amount of antiserum capable of binding about 20 pg of ^125 I-labeled dioxin derivative (hapten) is preincubated with the detergent emulsion of the sample extract (possibly containing TCDD). Then the mixture is incubated with the ^125 I-labeled derivative long enough for equilibrium binding to occur and form the hapten-antibody complex. A second antibody, namely, goat antibodies against rabbit gamma-globulin (i.e., goat anti-rabbit γ-globulin) are then added to precipitate the antibody ^125 I-labeled dioxin complex, and the amount of ^125 I in the precipitate is determined. The extent to which preincubation with the test material inhibits or decreases the amount of ^125 I precipitated relative to the amount precipitated in the absence of test material is a measure of the amount of chlorodibenzodioxin in the test sample.
(§2) Radioimmunoassay of small molecules requires some means of separating free hapten from antibody-bound hapten. The procedure used in the present invention, chosen because of its compatibility with detergent-solubilized hapten, involved precipitating the antibody-hapten complex with a second antibody, namely, goat antibodies against rabbit gamma-globulin. In this assay chlorodibenzodioxin from the environmental sample completes with the ^125 I-labeled hapten for binding to the antibody. Thus, the decrease in precipitation of radioactivity is a measure of the amount of (unlabeled) hapten in the test sample.
(§3) The assay buffer (hereinafter referred to as "PBS") contained, per liter, 20 mmol of potassium phosphate, 140 mmol of NaCl, and 200 mg of sodium azide. The pH was adjusted to 7.3 with NaOH. Antiserum was diluted with PBS also containing 0.1% bovine gamma globulin and 0.02% rabbit gamma globulin (w/v). Each assay tube from procedure G above received 0.2 ml of PBS, after which the tubes were held in the sonicator for 40 minutes and then cooled to room temperature. Appropriately diluted antiserum or, as control, antiserum diluant was added (0.2 ml) and, after vortex-mixing, the tubes were incubated for 40 minutes at 37°. 14000 disintegrations per minute (hereafter referred to as "DPM") or 7000 counts per minute (hereinafter referred to as "CPM", which equals DPM×counting efficiency) of [^125 I]-iodovaleramide derivative of trichlorodibenzo-p-dioxin in PBS containing 1% "Cutscum" were then added to each tube (approximately 10 μl), vortex mixed, and the tubes incubated for 1 hour at 37° followed by an additional 65 hours of incubation at 4°. Each tube next received 1.24 units of goat anti-rabbit gamma globulin in 0.2 ml of PBS containing 0.05 mM ethylenediamine tetracetic acid (hereinafter referred to as "EDTA"), was vortex mixed, and incubated for 5 hours at 4°. The tubes were centrifuged at 500×g for 20 minutes at 4°. The supernates were poured off and the tubes allowed to drain into Whatman #3 MM paper for 10 minutes. The precipitate or pellets obtained were then radioassayed for ^125 I, with 10 minute count cycles.
(§4) Standard curves were prepared using sequential two-fold dilutions of TCDD or other test compounds in benzene and evaporating the solvent as described above. Both control (blank) and TCDD-spiked tissues were extracted and processed as described above to determine general interference and recoveries. All samples were run in triplicate. […]

antiserum GC-5 = experiment: Cross reactivity in chlorinated DBD radioimmunoassay, antiserum GC-5; format: binding, rabbit
Text: as §1, §2, §3, §4

antiserum F-12 [3] = experiment: Specificity / cross reactivity of the radioimmunoassay, antiserum F-12; format: binding, rabbit; conditions: incubation times between 2 and 65 hours; "Cutscum"
[4] = Determination of 2,3,7,8-TCDD in monkey tissue by gas chromatography with negative ion mass spectrometry; format: in vivo, Rhesus Monkeys (Macaca muletta)
Text: (§5) Using spiked, sandy soil samples, the inventors were able to detect 0.7 picomole of 2,3,7,8-TCDD using "Cutsum" and either antiserum. With "Triton X-305" replacing the "Cutscum", as little as 0.08 picomole of 2,3,7,8-TCDDcould be detected. These levels of sensitivity required that a dilution of antiserum (usually about 1:9000) be used that would bind 33% of the ^125 I-labeled hapten. To test the applicability of this assay to tissue samples, the inventors obtained liver and adipose samples from monkeys that had been used in a toxicity study involving 2,3,7,8-TCDD [as described by E. E.McConnell et al in "Toxicity of 2,3,7,8-tetrachlorodibenzo-p-dioxin in Rhesus Monkeys (Macaca muletta) Following a Single Oral Dose", appearing in Toxicol. Appl. Pharmacol. 43/1,175-187(1978)]. Sample size ranged from 3 to 50 mg of tissue for the radioimmunoassay, while 200 mg samples were used for comparison assays by gas chromatography with either negative chemical ionization mass spectrometry [as described by J. R. Hass et al in "Determination of Polychlorinated Dibenzo-p-Dioxins in Biological Samples by Negative Chemical Ionization Mass Spectrometry", appearing in Anal. Chem. 50/11, 1471-1479 (1978)], or an electron capture detector as measuring device.
(§6) ^a Monkeys 373 and 374 were controls and dosed orally with corn oil
alone. Monkeys 380 and 391 were experimental and received a single oral […]

[5] = Determination of 2,3,7,8-TCDD in monkey tissue by gas chromatography with electron capture detector; format: in vivo, Rhesus Monkeys (Macaca muletta)
Text: as §5, §6
alone. Monkeys 380 and 391 were experimental and received a single oral
dose of 70 μg/kg or 350 μg/kg TCDD in corn oil, respectively.
GCEC = Gas chromatography with electron capture detector.

guinea pig = conditions: cited from earlier work
[6] = Determination of 2,3,7,8-TCDD in monkey tissue by radioimmunoassay; format: in vivo, Rhesus Monkeys (Macaca muletta); conditions: antiserum F12, "Cutscum"
Experimental: Blend 10 g of tissue in 200 ml of chloroform:methanol, 2:1 (v/v). Filter with suction through glass fiber filter paper (Reeve Angel grade 934AH or equivalent). Return the filter paper and cake to the blender jar and blend with 100 ml of chloroform:methanol, 2:1 (v/v). Filter as above ad combine filtrates. Add 52 ml of 1.2% aqueous KCl, mix well, let phases clear, and collect the lower phase in a 500 ml round bottom flask. Evaporate just to dryness at 40° using a rotary evaporator and water aspirator. This is a modification of the method of Folch et al [J.Biol.Chem.,236,497 (1957)].
Grind together 8 g of anhydrous sodium sulfate per gram of adipose, using a mortar and pestle. Extract the resulting powder with chloroform in a Soxhlet extractor, allowing at least 8 cycles.
Leach the lipid residue from 10 g of liver, 100 ml of blood or 1 g of adipose into 15 ml of CCl4. Partition against 15 ml of con.H2 SO4. Centrifuge at 2000 rpm for 30 minutes. Remove as much of the CCl4 layer as possible and record the volume recovered. Pass the CCl4 solution through anhydrous Na2 CO3 in a glass wool-plugged funnel, rinising the Na2 CO3 with 2 ml of fresh CCl4. Concentrate the filtrate just to dryness on a rotary evaporator at 40°. Leach the residue into 1.5 ml of n-hexane:methylene chloride, 97:3 (v/v).
as §3, with “Each tube next received 1.24 units of goat anti-rabbit gamma globulin in 0.2 ml of PBS containing 0.05 mM ethylenediamine tetracetic acid (hereinafter referred to as "EDTA"), was vortex mixed, and incubated for 5 hours at 4°. The tubes were centrifuged at 500×g for 20 minutes at 4°. The supernates were poured off and the tubes allowed to drain into Whatman #3 MM paper for 10 minutes. The precipitate or pellets obtained were then radioassayed for ^125 I, with 10 minute count cycles.” left out
Using spiked, sandy soil samples, the inventors were able to detect 0.7 picomole of 2,3,7,8-TCDD using "Cutsum" and either antiserum. With "Triton X-305" replacing the "Cutscum", as little as 0.08 picomole of 2,3,7,8-TCDDcould be detected. […]

[7] = monkey 380, adipose, single oral dose 70 μg/kg
[8] = monkey 391, adipose, single oral dose 350 μg/kg
[9] = monkey 380, liver, single oral dose 70 μg/kg
[10] = monkey 391, liver, single oral dose 350 μg/kg

Row | SMILES | toxicity relative to TCDD [1] | Cross Reactivity, Antiserum F-12: 100 × (inhibition of 125I binding by 4 pmole of test compound)/(inhibition by 4 pmole of 2,3,7,8-TCDD) (antiserum F-12 [2]) | Cross Reactivity, Antiserum GC-5: 100 × (inhibition of 125I binding by 4 pmole of test compound)/(inhibition by 4 pmole of 2,3,7,8-TCDD) (antiserum GC-5) | reactivity with F-12 (2,3,7,8-tetrachlorodibenzo-p-dioxin v 2,3,7,8-tetrachlorodibenzofuran) (antiserum F-12 [2]) | ratio of inhibition by 5 ng of 2,3,7,8-DBF to that of 2,3,7,8-DBD (antiserum F-12 [3]) | TCDD in tissue, GM-MS [4, 7] | TCDD in tissue, GM-MS [4, 8] | TCDD in tissue, GC-EC [5, 7] | TCDD in tissue, GC-EC [5, 9] | TCDD in tissue, GC-EC [5, 8] | TCDD in tissue, GC-EC [5, 10] | acute oral LD50 (guinea pig) | TCDD in tissue, RIA [6, 7] | TCDD in tissue, RIA [6, 9] | TCDD in tissue, RIA [6, 8] | TCDD in tissue, RIA [6, 10] | binding by the antibodies in GC-5 (antiserum GC-5) | maximum inhibition of binding of 125I-labeled hapten (antiserum GC-5; GC-5 diluted such that 33% of the label was bound in the absence of competitors)
1 | Clc1cc2c(cc1Cl)Oc1c(cc(Cl)c(Cl)c1Cl)O2 [1,2,3,7,8-Cl5 Dibenzo-p-Dioxin] | toxicities comparable to that of TCDD | 97% | 99% |  |  |  |  |  |  |  |  |  |  |  |  |  |  | 
2 | Clc1cc2oc3cc(Cl)c(Cl)cc3c2cc1Cl [2,3,7,8-Cl4 Dibenzofuran, 2,3,7,8-tetrachlorodibenzofuran] |  | 92% | 25% | approximately the same reactivity | constant |  |  |  |  |  |  |  |  |  |  |  |  | 
3 | Clc1cc2c(cc1Cl)Oc1cc(Cl)c(Cl)cc1O2 [2,3,7,8-TCDD, 2,3,7,8-tetrachlorodibenzo-p-dioxin] |  | 100% | 100% | approximately the same reactivity |  | 28 ppb | 1740 ppb | 87 ppb | 17 ppb | 1810 ppb | 30 ppb | less than 1 microgram per kg | 41 ppb | 20 ppb | 1800 ppb | 94 ppb | Essentially all of these antibodies (in GC-5) also bind 2,3,7,8-TCDD | up to 97%

Source: patent US4238472A, “Radioimmunoassay for chlorinated dibenzo-p-dioxins” (priority 1978, dated 1980)
